Results reported in US11059842B2, “Monosaccharide amine and 3-nitro-2-phenyl-2H-chromene based inhibitors of glucose kinases” (UNIVERSITY OF SOUTH CAROLINA, priority 2019, dated 2021).
“And” between values parts separate entries of the source, which are not always exact repeats. Identical values can stand only once. Like-named read-outs stand apart in the source and are kept apart here.

What was measured:
T. brucei = T. brucei in vitro screen; format: cell-based; settings: Trypanosoma brucei; average; concentrations up to 10 μM, N=3
Experimental: Compounds 19-31 were screened against T. brucei. The single dose in vitro study included administration of the compounds in increasing concentrations up to 10 μM (N=3 for each compound concentration value). Media and T. bricei+0.5% SDS were used as control.

TcGlcK [1] = biological target: T1, TcGlcK (Trypanosoma cruzi (strain CL Brener), UniProt Q4E4E1); assay: Primary assay screen of TcGlcK, normalized percent inhibition (Example 2); format: biochemical; settings: triplicate
Experimental: (§1) Primary assay screens of TcGlcK, LbGlcK, and HsHxKIV against the 3-nitro-2-phenyl-2H-chromene-based inhibitors compound nos. 19-22 were carried out. Compound 1, Benzoyl glucosamine (BENZ-GlcN or simply “BENZ”) and carboxybenzyl glucosamine (CBZ-GlcN or simply “CBZ”) were both used as controls due to their known inhibition against TcGlcK. LbGlcK was chosen to be tested against these compounds due to its 44% protein sequence similarity to TcGlcK.
(§2) All screens were done in triplicate and were analyzed using normalized percent inhibition (NPI) calculations. NPI calculations rely on positive and negative assay controls within the screen to account for any fluctuations in the fluorescence measurements.
(§3) The NPI for a compound to be considered a “hit” against TcGlcK required a value exceeding 60.5% inhibition in the primary screen. All four compounds ([…]) qualified as hits based off of this parameter. LbGlcK required compounds to be above 12.6% inhibition in its primary screen; all four compounds were also qualified as hits.

HsHxKIV [2] = biological target: T2, HsHxKIV (Homo sapiens (Human), UniProt P35557); assay: Primary assay screen of HsHxKIV, normalized percent inhibition (Example 2); format: biochemical; settings: triplicate
Experimental: as §1, §2, §3

[3] = system: T. cruzi (Tulahuen strain) infective form (trypomastigote and amastigote life stages) co-cultured in NIH-3T3 fibroblasts; settings: literature / previously measured values; infective form in NIH-3T3 fibroblasts; cited from earlier work
[4] = biological target: Homo sapiens hexokinase IV (HsHxKIV) (Homo sapiens (Human), UniProt P35557); assay: HsHxKIV enzyme-inhibition screening assay (Example 1); format: biochemical; settings: 20 μM compound; N = 1
Experimental: (§4) D-Glucose was also tested as a control with alternative substrates. The protein expression work for TcGlcK and HsHxKIV were each made possible through the E. coli strain BL21(DE3) system. Purification of each enzyme was performed through cobalt-NTA chromatography followed by size-exclusion chromatography; assessment of purity was performed by SDS-PAGE. In enzymatic assays, a time-optimum (TOPT) was determined to be 120 seconds for TcGlcK and 600 seconds for HsHxKIV; all assays were run at room temperature. A general reaction scheme included a first reaction in which the monosaccharide, ATP, and Mg^2+ react with the enzyme, e.g., TcGlcK, forming a hexose-phosphate and ADP. In a second reaction, hexose-phosphate with the assistance of glucose-6-phosphate dehydrogenase (G6PDH) and NADP^+ was converted to the lactone form of the hexose-phosphate and NADPH. Fluorescence of NADPH was monitored using a fluorescence microplate reader with […] wavelengths of 340 nm and 485 nm, respectively.
(§5) FIG. 4 and FIG. 5 present typical Michaelis-Menten enzyme kinetic plots for D-glucose. As shown, the NADP^+ to NADPH turnover rate is a function of [D-glucose] & [ATP] for TcGlcK (FIG. 4) and HsHxKIV (FIG. 5) absent inhibition. Michaelis-Menten constant (KM) values, which were used as the set final assay concentrations of substrates D-glucose and ATP for the primary screens, were determined for both TcGlcK and HsHxKIV in triplicate runs. The KM values for TcGlcK with respect to D-glucose and ATP were 0.40 mM and 0.34 mM, respectively. The KM values for HsHxKIV with respect to D-glucose and ATP were 43 mM and 0.20 mM, respectively.

[5] = system: T. cruzi (Tulahuen strain) infective form (trypomastigote and amastigote life stages) co-cultured in NIH-3T3 fibroblasts; assay: T. cruzi infective form growth inhibition in NIH-3T3 fibroblasts; format: cell-based, Trypanosoma cruzi; settings: Tulahuen strain infective form in NIH-3T3 fibroblasts; N = 3 (Amphotericin B control: 6 replicates)
Experimental: The curve and the IC50 were calculated from measurements determined in triplicate and expressed as percent growth inhibition of the T. cruzi parasite infection of mammalian cells.
Compounds were further screened against the T. cruzi (Tulahuen strain) infective form (trypomastigote and amastigote life stages) co-cultured in NIH-3T3 fibroblasts to establish IC50 values. Assays were performed in triplicate.
The single dose in vitro study included administration of the compounds in 80 μM inhibitor concentrations (N=3). Amphotericin B was used as a control.

TcGlcK [6] = biological target: T1, TcGlcK; format: biochemical
Experimental: as §4, with “In enzymatic assays, a time-optimum (TOPT) was determined to be 120 seconds for TcGlcK and 600 seconds for HsHxKIV; all assays were run at room temperature.” left out

[7] = biological target: Trypanosoma cruzi glucokinase (TcGlcK) (Trypanosoma cruzi (strain CL Brener), UniProt Q4E4E1); format: biochemical; settings: for TcGlcK Inh20 (%): percentage of inhibition at 20 μM of the compound, N = 1
Experimental: as §4, with “In enzymatic assays, a time-optimum (TOPT) was determined to be 120 seconds for TcGlcK and 600 seconds for HsHxKIV; all assays were run at room temperature.” left out
(§6) Michaelis-Menten constant (KM) values, which were used as the set final assay concentrations of substrates D-glucose and ATP for the primary screens, were determined for both TcGlcK and HsHxKIV in triplicate runs. […]
The cutoff percentage was calculated by using normalized percent inhibition that took into consideration the positive and negative controls of the fluorescence readout from a fluorescence microplate reader. In addition, an unconfirmed hit was selected if the activity measurement was three standard deviations away from the mean of the positive controls.

[8] = system: glucose-6-phosphate dehydrogenase (G6PDH); assay: G6PDH confirmatory assay (coupling enzyme counter-screen); format: biochemical; settings: 20 μM compound; quadruplicate
Experimental: The 16 compounds showing substantial inhibition against TcGlcK at compound concentrations of 20 μM were then examined in a confirmatory assay in which the amino sugar analogues were at a concentration of 20 μM and were tested against the assay's only coupling enzyme, G6PDH, to verify enzyme activity; the assay was performed in quadruplicate. […] These confirmed hits included representatives from all three monosaccharide scaffolds tested (i.e., D-GlcN, D-ManN, and D-GalN).

[9] = system: Leishmania braziliensis glucokinase (LbGlcK); assay: Primary assay screen of LbGlcK, normalized percent inhibition (Example 2); format: biochemical; settings: triplicate
Experimental: as §1, §2, §3

TcGlcK [10] = biological target: T1, TcGlcK; settings: from D'Antonio, et al (2015); cited from earlier work
TcGlcK [11] = biological target: T1, TcGlcK; assay: TcGlcK Michaelis-Menten kinetics and substrate range; format: biochemical; settings: substrate; triplicate runs
Experimental: as §4, §5
All phosphorylated hexoses were shown getting converted into their corresponding products by G6PDH, in abundant quantities through a 30-second time frame. This permitted the standard TcGlcK […] assay, which was timed for […], to be used as an assay to analyze alternative substrates.

HsHxKIV [12] = biological target: T2, HsHxKIV; assay: HsHxKIV Michaelis-Menten kinetics; format: biochemical; settings: substrate; triplicate runs
Experimental: as §4
as §6, with “FIG. 4 and FIG. 5 present typical Michaelis-Menten enzyme kinetic plots for D-glucose. […] Michaelis-Menten” for “Michaelis-Menten”

T2 sequence (P35557 whole entry): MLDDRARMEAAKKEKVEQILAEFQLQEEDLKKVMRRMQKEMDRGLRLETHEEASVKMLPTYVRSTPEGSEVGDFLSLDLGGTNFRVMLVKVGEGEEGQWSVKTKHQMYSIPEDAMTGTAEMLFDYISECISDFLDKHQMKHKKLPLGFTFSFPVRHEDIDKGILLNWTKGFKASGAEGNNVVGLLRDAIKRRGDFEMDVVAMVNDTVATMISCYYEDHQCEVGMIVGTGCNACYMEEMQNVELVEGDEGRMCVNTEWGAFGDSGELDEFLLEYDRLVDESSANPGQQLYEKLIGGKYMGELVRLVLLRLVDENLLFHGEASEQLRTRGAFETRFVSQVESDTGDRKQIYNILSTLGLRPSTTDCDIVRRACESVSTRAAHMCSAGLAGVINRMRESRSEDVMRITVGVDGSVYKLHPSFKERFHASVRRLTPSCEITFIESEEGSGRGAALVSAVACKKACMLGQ
T1 sequence (Q4E4E1 1-376): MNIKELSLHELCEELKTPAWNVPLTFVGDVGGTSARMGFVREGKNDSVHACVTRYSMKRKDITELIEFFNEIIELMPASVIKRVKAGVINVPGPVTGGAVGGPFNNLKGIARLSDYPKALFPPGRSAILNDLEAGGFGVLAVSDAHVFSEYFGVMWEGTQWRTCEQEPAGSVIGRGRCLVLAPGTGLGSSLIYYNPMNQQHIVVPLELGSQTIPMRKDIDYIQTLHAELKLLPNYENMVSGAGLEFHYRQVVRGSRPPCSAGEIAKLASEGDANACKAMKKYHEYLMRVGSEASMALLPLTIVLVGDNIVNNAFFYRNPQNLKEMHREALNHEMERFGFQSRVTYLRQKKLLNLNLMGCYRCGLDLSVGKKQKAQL
Chain of Trypanosoma cruzi glucokinase (TcGlcK) (Q4E4E1 1-376): as above
Chain of Homo sapiens hexokinase IV (HsHxKIV) (P35557 whole entry): as the sequence (P35557 whole entry) above

With O=[N+]([O-])C1=Cc2cc(Br)cc(Br)c2O[C@H]1c1c(Cl)cccc1Cl [Compound 19] the IC50 (T. brucei) was 0.902 µM, the “NPI (%) TcGlcK” value (TcGlcK [1]) was 62.3% and the “NPI (%) HsHxKIV” value (HsHxKIV [2]) was 82.1%.

For O=C(Cn1ccnc1[N+](=O)[O-])NCc1ccccc1 [benznidazole], the IC50 [3] is listed as 1.12 ± 0.01 µM.

With O=C(N[C@H]1C(O)O[C@H](CO)[C@@H](O)[C@@H]1O)c1cc2ccccc2o1 (some centres unmarked) [Compound 5] the “HsHxKIV Inh20(%)” value [4] was 25%, the IC50 [5] was 27.2 µM and the “mode of TcGlcK inhibition” value (TcGlcK [6]) was “competitive inhibition”. The Ki (TcGlcK [6]; N = 3) was 139 ± 35 µM, the “TcGlcK Inh20 (%)” value [7] was 31% and 31.2% and the “G6PDH Inh20 (%)” value [8] was 0.0 ± 0.0%.

For O=C(N[C@H]1C(O)O[C@H](CO)[C@@H](O)[C@@H]1O)c1ccccc1 (some centres unmarked) [Compound 1, Benzoyl glucosamine], the “HsHxKIV Inh20(%)” value [4] was 39%, the “NPI (%) LbGlcK” value [9] was 27.2% and the “Ki stronger than compound 5 by magnitude” value (TcGlcK [6]; relative to compound 5) was 4.3 fold. For the same compound, the “NPI (%) TcGlcK” value (TcGlcK [1]) was 100%, the Ki (TcGlcK [10]) was 32 µM and the “TcGlcK Inh20:HsHxKIV Inh20 ratio” value ([7]; higher values indicate more selective towards TcGlcK) was 1.65. For the same compound, the “TcGlcK Inh20 (%)” value [7] was 65% and 64.7%, the “NPI (%) HsHxKIV” value (HsHxKIV [2]) was 9.30% and the “G6PDH Inh20 (%)” value [8] was 0.5 ± 1.0%.

For O=C(NC1C(O)OC(CO)C(O)C1O)OCc1ccccc1 (centres unmarked) [CBZ-GlcN, carboxybenzyl glucosamine, reference compound], the “NPI (%) TcGlcK” value (TcGlcK [1]) was 100%, the “TcGlcK Inh20 (%)” value [7] was 92% and the “NPI (%) HsHxKIV” value (HsHxKIV [2]) was 15.0%.

With O=[N+]([O-])C1=Cc2cc(Br)ccc2O[C@H]1c1ccccc1Cl [Compound 20] the IC50 (T. brucei) was 0.862 µM, the “NPI (%) TcGlcK” value (TcGlcK [1]) was 89.5% and the “NPI (%) HsHxKIV” value (HsHxKIV [2]) was 64.7%.

For O=[N+]([O-])C1=Cc2ccccc2O[C@H]1c1c(Cl)cccc1Cl [Compound 22], the “NPI (%) TcGlcK” value (TcGlcK [1]) was 69.5% and the “NPI (%) HsHxKIV” value (HsHxKIV [2]) was 66.0%.

With Nc1ncnc2c1ncn2[C@@H]1O[C@H](COP(=O)(O)OP(=O)(O)OP(=O)(O)O)[C@@H](O)[C@H]1O [ATP] the Km (TcGlcK [11]) was 340 µM and the Km (HsHxKIV [12]) was 200 µM.
